Test results published in patent US8247439B2, “Jasmonate derivatives, pharmaceutical compositions and methods of use thereof” (Sepal Pharma Ltd., priority 2005, dated 2012).

What was measured:
[1] = test system: Molt-4 lymphoblastic leukemia cells; test: Cytotoxicity of jasmonate derivatives in Molt-4 cells (Example 1, XTT/MTS assay); type: cell-based, Human; conditions: for Cytotoxic potency at 0.1 mM, first screening: Molt-4, 0.1 mM; for Cytotoxic potency, second screen: Molt-4, 0.01-0.1 mM, FIG. 2; for Cytotoxic potency compared to methyl jasmonate, first screening: Molt-4, 0.1-1 mM, FIGS. 1A and 1B; for Cytotoxic potency compared to methyl jasmonate, third screen: Molt-4, FIG. 3 and Table 1; for inhibition at 1 µM / inhibition at 10 µM / inhibition at 100 µM: Homo sapiens, MOLT-4, 24 hours, value (±spread), read-out: Cytotoxicity in Molt-4 cells (% of inhibition compared to control); for inhibition at 1 µM: 0.001 mM; for inhibition at 10 µM: 0.01 mM; for inhibition at 100 µM: 0.1 mM
Experimental: (§1) Measurement of reduction in the number of living cells was determined by the CellTiter 96 Aqueous Non-Radioactive Cell Proliferation Assay (XTT Cell Proliferation Kit assay (Biological industries, Beit-Haemek, Israel)). Upon completion of a given experiment, MTS (a tetrazolium compound) at 333 μg/ml+phenazine methosulfate (at 25 μM) was added to each well of the 96-well plate for 1 hour at 37° C. This allowed for development of a color reaction in which dehydrogenases reduce the MTS in metabolically active cells. Soluble MTS formazan product was measured at a wavelength of 490 nm using a CERES 900 HDI ELISA reader (Bio-Tek Instruments, Inc, Highland Park, Vt.).
(§2) Percentage of Optical density is directly proportional to the number of living cells in culture. Cytotoxicity (%) was calculated in the following way: [(OD of control cells —OD of drug-treated cells)/OD of control cells]×100.
The cytotoxicity of jasmonate derivatives A1-A6, B1 and B2 was compared to that of the previously studied jasmonate, methyl jasmonate (MJ). The cytotoxicity of each compound was determined in Molt-4-Human acute lymphoblastic leukemia cell-line.
[…] Each experimental point was performed in triplicates. Untreated cells were used as control. The test compounds were prepared as a stock of 100 mM in DMSO. Dilutions were performed in culture medium and DMSO so that the maximal concentration of DMSO in each well was 0.5%. […] Cytotoxicity and optical density were determined as described above.

Molt-4 (leukemia) cells [2] = test: Cytotoxicity in Molt-4 cells (Example 2, selectivity); type: cell-based; conditions: Homo sapiens, 24 h; Molt-4, one day incubation
Experimental: as §1, §2
(§3) Molt-4 (leukemia) cells (at 2.5×10^4/ml), and normal peripheral blood lymphocytes (PBL, at 2×10^5/ml) were incubated in 96-well plates for one day in the presence of different concentrations of methyl jasmonate, (MJ—disclosed in U.S. Pat. No. 6,469,061), and compounds A3 and A4 of the present invention at concentrations: of 0.001, 0.01, 0.1 and 0.5 mM. In some experiments, PBL were pre-incubated with 0.8 μg/ml phytohemagglutinin (PHA)+5 ng/ml TPA for […], to induce entrance into the cell cycle. These cells proliferate and therefore are similar in that respect to cancer cells, making the comparison more valid. The optical density that represented viable cells was determined as described above.

[3] = test system: normal peripheral blood lymphocytes (PBL), -PHA/TPA; test: Cytotoxicity in normal PBL without PHA/TPA (Example 2); type: cell-based, Human; conditions: for IC20 / IC50: Homo sapiens, Lymphocyte, 24 h, PBL -PHA/TPA, one day incubation; for Selective cytotoxic effect: leukemic cells vs normal lymphocytes: Molt-4 vs PBL, FIGS. 4A and 4B
Experimental: as §1, §2, §3

[4] = test system: normal peripheral blood lymphocytes (PBL), +PHA/TPA; test: Cytotoxicity in normal PBL pre-incubated with PHA/TPA (Example 2); type: cell-based; conditions: Homo sapiens, Lymphocyte, 24 h, one day incubation
Experimental: as §1, §2, §3

Molt-4 = test: Cytotoxicity of B3 in Molt-4 (Example 4); type: cell-based; conditions: Homo sapiens; Molt-4, 24 hours, n=12
Experimental: as §1, §2
(§4) Mononuclear cells were isolated from peripheral blood of healthy donors and treated as described above. The non-adherent PBL were pre-incubated without PHA and TPA. Molt-4 and PBL cells were seeded in 96-well plates as described above.
(§5) Compound B3 was added at concentration ranging from 0.0025-1 mM for 24 hours. The number of repeats for each experiment is indicated by n. Untreated cells were used as control. […] Optical density and percentage of Cytotoxicity were determined as described above.

[5] = test system: CLL (PBL, chronic lymphocytic leukemia); test: Cytotoxicity of B3 in CLL cells (Example 4); type: cell-based; conditions: Homo sapiens, CLL cell, 24 hours, n=14
Experimental: as §1, §2
Cytotoxicity of compound B3 was evaluated in 1) Molt 4 cells (an in-vitro model for transformed cells); 2) PBL (an ex vivo model for normal cells); and 3) PBL CLL—Peripheral blood lymphocytes collected from chronic lymphocytic leukemia patients (an ex vivo model for ex vivo transformed cells). […]
Compound B3 was added at concentration ranging from 0.0025-1 mM for 24 hours. […] Optical density and percentage of Cytotoxicity were determined as described above.

NCI H460 = test: Cytotoxicity of B3 in NCI H460 (Example 4); type: cell-based; conditions: Homo sapiens; NCI H460, 24 hours, n=3
Experimental: as §1, §2
(§6) Compound B3 was added at concentration ranging from 0.0025-1 mM for 24 hours. The number of repeats for each experiment is indicated by n. Untreated cells were used as control. Compound B3 was prepared as a stock of 100 mM in 100% DMSO and dilutions in medium were prepared as described above. Optical density and percentage of Cytotoxicity were determined as described above.

B16 = test: Cytotoxicity of B3 in B16 (Example 4); type: cell-based; conditions: Mus musculus; B16, 24 hours, n=6
Experimental: as §1, §2, §6

HTB38 = test: Cytotoxicity of B3 in HTB38 (Example 4); type: cell-based; conditions: Homo sapiens, HTB-38; HTB38, 24 hours, n=3
Experimental: as §1, §2, §6

LNCaP = test: Cytotoxicity of B3 in LNCaP (Example 4); type: cell-based; conditions: Homo sapiens, 24 hours, n=4
Experimental: as §1, §2, §6

PBL, healthy donors = test: Cytotoxicity of B3 in PBL of healthy donors (Example 4); type: cell-based, Human
Experimental: as §1, §2, §4, §5

Fibroblasts = test: Cytotoxicity of B3 in fibroblasts (Example 4); type: cell-based; conditions: Homo sapiens, Fibroblast, 24 hours, n=2
Experimental: as §1, §2, §6

Molt-4 cell line = test: Cytotoxicity of different batches of B3 towards Molt-4 (Example 5); type: cell-based, Human
Experimental: as §1, §2
The IC50 values in Molt-4 cells for B3 were 0.06 mM in average. For cytotoxicity evaluation in different cell lines B3-IV was used.

Molt 4 cell line = test: ATP depletion in Molt-4 (CellTiter-Glo luminescent assay, Example 7); type: cell-based; conditions: Homo sapiens; Molt-4, 1 hr exposure
Experimental: The effect of methyl jasmonate and compound B3 on ATP level depletion is studied in the Molt 4 cell line using ATP kit and luminometer (Cell titer—Glo Luminescent, cell viability assay, Promega, code G7571, Ref.)
Cell preparation: Cells (Molt 4) were seeded in 96-well opaque-walled plates. The number of cells (in a volume of 100 μL/well) was: 5×10^4 cells/well. Control wells contained 100 μL medium without cells (background luminescence) Incubations were performed at 37° C., 6% CO2, using the following culture medium: RPMI 1640, 10% FCS, 2 mM L-Glutamine and penicillin 200 U/ml+200 μg/ml streptomycin or equivalent. For the cell viability assay, cells were incubated for 12 min-24 hr. in the absence or presence of methyl jasmonate or several jasmonate derivatives of the present invention at 0.05-4 mM. Reagent Preparation The CellTiter-Glo® buffer and the lyophilized substrate were thawed and equilibrated to room temperature. The buffer was mixed with the substrate by vortexing for 1 minute. […]
The plates were equilibrated to room temperature [25° C.] for 30 min. […] The plates were allowed to incubate at 25° C. for 10 min in the Luminoskan to stabilize luminescence signal. Results were read through Record luminescence [Thermo-Luminoskan Ascent] or equivalent, with integration time of 2000 m. seconds per well and blanking time 5%. […] Percent of cytotoxicity was determined described above.

Molt-4 (leukemia) cells [6] = conditions: cited from earlier work
[7] = test system: normal peripheral blood lymphocytes (PBL), -PHA/TPA; conditions: cited from earlier work
lymphomas = conditions: mice; cited from earlier work

Which “Cytotoxic potency at 0.1 mM, first screening” value (“Cytotoxic potency at 0.1 mM” for short) [1] does the source give for CCCCCC1c2nc(NC(=O)c3cnccn3)sc2CC1CC(=O)NC1CC1 (centres unmarked) [Compound A1] here?
The value was “very potent”.

And the “Cytotoxic potency, second screen” value [1]?
Its value is “most potent”.

And the “Cytotoxic potency compared to methyl jasmonate, first screening” value [1]?
The value was “more potent than methyl jasmonate”.

For CCCCCC1c2nc(N)sc2CC1CC(=O)N1CCN(C)CC1 (centres unmarked) [Compound A2], which “Cytotoxic potency compared to methyl jasmonate, first screening” value [1] is on record?
Its value is “more potent than methyl jasmonate”.

What does the source list for CCCCCC1c2nc(NC(=O)Cc3cccs3)sc2CC1CC(=O)O (centres unmarked) [Compound A3]?
Cytotoxic potency at 0.1 mM, first screening [1]: very potent; Cytotoxic potency, second screen [1]: most potent; Cytotoxic potency compared to methyl jasmonate, first screening [1]: more potent than methyl jasmonate; Cytotoxic potency compared to methyl jasmonate, third screen [1]: significantly more potent than methyl jasmonate; IC20 (Molt-4 (leukemia) cells [2]): 10 µM; IC50 (Molt-4 (leukemia) cells [2]): 50 µM; IC20 [3]: 30 µM; IC50 [3]: 250 µM; Selective cytotoxic effect: leukemic cells vs normal lymphocytes [3]: without exerting a substantial effect on normal lymphocytes; IC20 [4]: 70 µM; IC50 [4]: 300 µM

With CCCCCC1c2nc(-c3ccccc3)sc2CC1CC(=O)N1CCC(O)CC1 (centres unmarked) [Compound A4] as the molecule, how does the inhibition at 1 µM [1] read?
The inhibition at 1 µM was 4%.

And the inhibition at 10 µM [1]?
The inhibition at 10 µM was 10%.

What about the inhibition at 100 µM [1] of the same molecule?
The inhibition at 100 µM was 96%.

What about the “Cytotoxic potency at 0.1 mM” value [1] of the same molecule?
The value was “very potent”.

And the “Cytotoxic potency, second screen” value [1]?
The value was “most potent”.

What about the “Cytotoxic potency compared to methyl jasmonate, first screening” value [1] of the same molecule?
The value was “more potent than methyl jasmonate”.

What about the “Cytotoxic potency compared to methyl jasmonate, third screen” value [1] of the same molecule?
Its value is “significantly more potent than methyl jasmonate”.

And the IC20 (Molt-4 (leukemia) cells [2])?
The IC20 was < 10 µM.

And the IC50 (Molt-4 (leukemia) cells [2])?
Its IC50 is 45 µM.

And the IC20 [3]?
The IC20 was < 10 µM.

What about the “Selective cytotoxic effect: leukemic cells vs normal lymphocytes” value [3] of the same molecule?
The value was “without exerting a substantial effect on normal lymphocytes”.

And the IC20 [4]?
The IC20 was 25 µM.

Which results are given for CCCCCC1c2nc(NS(=O)(=O)c3cccc(F)c3)sc2CC1CC(=O)OC (centres unmarked) [Compound A5]?
Cytotoxic potency at 0.1 mM, first screening [1]: very potent; Cytotoxic potency compared to methyl jasmonate, first screening [1]: more potent than methyl jasmonate

Which “Cytotoxic potency at 0.1 mM” value [1] does the source give for CCCCCC1c2nc(Nc3ccccc3)sc2CC1CC(=O)NCCOC (centres unmarked) [Compound A6] here?
Its value is “very potent”.

And the “Cytotoxic potency, second screen” value [1]?
Its value is “most potent”.

What about the “Cytotoxic potency compared to methyl jasmonate, first screening” value [1] of the same molecule?
The value was “more potent than methyl jasmonate”.

What does the source list for CC/C=C\CC1C(=O)CCC1CCOC(=O)CC1CCC(=O)C1C/C=C\CC (centres unmarked) [Compound B3]?
IC50 (Molt-4): 70 µM; IC50 [5]: 250 µM; IC50 (NCI H460): > 1000 µM; IC50 (B16): 700 µM; IC50 (HTB38): > 1000 µM; IC50 (LNCaP): > 1000 µM; IC50 (PBL, healthy donors; Homo sapiens, PBL healthy donors, without PHA/TPA, 24 hours, n=12): 1000 µM; Selective cytotoxicity towards cancer cells (PBL, healthy donors; Molt-4, CLL vs PBL, FIG. 5): exhibits selective cytotoxicity towards cancer cells; IC50 (Fibroblasts): > 500 µM; IC50 (Molt-4 cell line; Homo sapiens, MOLT-4, Molt-4): 60 µM; IC50 (Molt-4 cell line; Molt-4, listed as B3 (IV)): 50 µM; IC50 (Molt-4 cell line; Molt-4, listed as B3 (V)): 80 µM; IC50 (Molt 4 cell line): 500 µM

Which results are given for CC/C=C\CC1C(=O)CCC1CC(=O)OC (centres unmarked) [MJ, methyl jasmonate, reference compound]?
inhibition at 1 µM [1]: 6%; inhibition at 10 µM [1]: 5%; inhibition at 100 µM [1]: 17%; IC20 (Molt-4 (leukemia) cells [2]): 30 to 50 µM; IC50 (Molt-4 (leukemia) cells [2]): 100 to 500 µM; IC20 [3]: > 500 µM; IC50 [3]: > 500 µM; IC20 [4]: > 500 µM; IC50 [4]: > 500 µM; IC50 (Molt-4 cell line; Homo sapiens, MOLT-4, Molt-4): 600 µM; IC50 (Molt 4 cell line): 500 µM; Cytotoxicity to Molt-4 cells (previously reported data) (Molt-4 (leukemia) cells [6]): cytotoxic to Molt-4 cells; Toxicity to normal lymphocytes (previously reported data) [7]: almost not toxic to normal lymphocytes; Prevention of development of lymphomas (lymphomas): effective in preventing development of lymphomas in mice
